Columns and labels:
Assay in all cases: NCI-60 screen (SRB)
Format in all cases: cell-based
A498 = A498 (Renal)
Protocol: (§1) The human tumor cell lines of the cancer screening panel are grown in RPMI 1640 medium containing 5% fetal bovine serum and 2 mM L-glutamine. For a typical screening experiment, cells are inoculated into 96 well microtiter plates in 100 μL at plating densities ranging from 5,000 to 40,000 cells/well depending on the doubling time of individual cell lines. After cell inoculation, the microtiter plates are incubated at 37° C., 5% CO2, 95% air and 100% relative humidity for 24 h prior to addition of experimental drugs.
(§2) After 24 h, two plates of each cell line are fixed in situ with TCA, to represent a measurement of the cell population for each cell line at the time of drug addition (Tz). Experimental drug is solubilized in dimethyl sulfoxide at 400-fold the desired final maximum test concentration and stored frozen prior to use. At the time of drug addition, an aliquot of frozen concentrate is thawed and diluted to twice the desired final maximum test concentration with complete medium containing 50 μg/ml gentamicin. Additional four, 10-fold or ½ log serial dilutions are made to provide a total of five drug concentrations plus control. Aliquots of 100 μl of these different drug dilutions are added to the appropriate microtiter wells already containing 100 μl of medium, resulting in the required final drug concentrations.
(§3) Following drug addition, the plates are incubated for an additional 48 h at 37° C., 5% CO2, 95% air, and 100% relative humidity. For adherent cells, the assay is terminated by the addition of cold TCA. Cells are fixed in situ by the gentle addition of 50 μl of cold 50% (w/v) TCA (final concentration, 10% TCA) and incubated for 60 minutes at 4° C. The supernatant is discarded, and the plates are washed five times with tap water and air dried. Sulforhodamine B (SRB) solution (100 μl) at 0.4% (w/v) in 1% acetic acid is added to each well, and plates are incubated for 10 minutes at room temperature. After staining, unbound dye is removed by washing five times with 1% acetic acid and the plates are air dried. Bound stain is subsequently solubilized with 10 mM trizma base, and the absorbance is read on an automated plate reader at a wavelength of 515 nm. For suspension cells, the methodology is the same except that the assay is terminated by fixing settled cells at the bottom of the wells by gently adding 50 μl of 80% TCA (final concentration, 16% TCA). Using the seven absorbance measurements [time zero, (Tz), control growth, (C), and test growth in the presence of drug at the five concentration levels (Ti)], the percentage growth is calculated at each of the drug concentrations levels.
(§4) Percentage growth inhibition is calculated as: [(Ti−Tz)/(C−Tz)]×100 for concentrations for which Ti>/=Tz (1) [(Ti−Tz)/Tz]×100 for concentrations for which Ti<Tz (2)
(§5) Growth inhibition of 50% (GI50) is calculated from [(Ti−Tz)/(C−Tz)]×100=50 (3)
(§6) which is the drug concentration resulting in a 50% reduction in the net protein increase (as measured by SRB staining) in control cells during the drug incubation.
(§7) The drug concentration resulting in total growth inhibition (TGI) is calculated from Ti=Tz (4)
(§8) The LC50 (concentration of drug resulting in a 50% reduction in the measured protein at the end of the drug treatment as compared to that at the beginning) indicating a net loss of cells following treatment is calculated from [(Ti−Tz)/Tz]×100=−50 (5)
(§9) Values are calculated for each of these three parameters if the level of activity is reached; however, if the effect is not reached or is exceeded, the value for that parameter is expressed as greater or less than the maximum or minimum concentration tested.

A549/ATCC = A549/ATCC (Non-Small Cell Lung)
Protocol: as §1, §2, §3, §4, §5, §6, §7, §8, §9

ACHN = ACHN (Renal)
Protocol: as §1, §2, §3, §4, §5, §6, §7, §8, §9

CCRF-CEM = CCRF-CEM (Leukemia)
Protocol: as §1, §2, §3, §4, §5, §6, §7, §8, §9

HCC-2998 = HCC-2998 (Colon)
Protocol: as §1, §2, §3, §4, §5, §6, §7, §8, §9

HOP-62 = HOP-62 (Non-Small Cell Lung)
Protocol: as §1, §2, §3, §4, §5, §6, §7, §8, §9

HS 578T = HS 578T (Breast)
Protocol: as §1, §2, §3, §4, §5, §6, §7, §8, §9

K-562 = K-562 (Leukemia)
Protocol: as §1, §2, §3, §4, §5, §6, §7, §8, §9

LOX IMVI = LOX IMVI (Melanoma)
Protocol: as §1, §2, §3, §4, §5, §6, §7, §8, §9

MOLT-4 = MOLT-4 (Leukemia)
Protocol: as §1, §2, §3, §4, §5, §6, §7, §8, §9

NCI-H322M = NCI-H322M (Non-Small Cell Lung)
Protocol: as §1, §2, §3, §4, §5, §6, §7, §8, §9

NCI-H460 = NCI-H460 (Non-Small Cell Lung)
Protocol: as §1, §2, §3, §4, §5, §6, §7, §8, §9

OVCAR-5 = OVCAR-5 (Ovarian)
Protocol: as §1, §2, §3, §4, §5, §6, §7, §8, §9

SF-268 = SF-268 (CNS)
Protocol: as §1, §2, §3, §4, §5, §6, §7, §8, §9

SK-MEL-2 = SK-MEL-2 (Melanoma)
Protocol: as §1, §2, §3, §4, §5, §6, §7, §8, §9

SK-MEL-5 = SK-MEL-5 (Melanoma)
Protocol: as §1, §2, §3, §4, §5, §6, §7, §8, §9

T-47D = T-47D (Breast)
Protocol: as §1, §2, §3, §4, §5, §6, §7, §8, §9

[1] = Homo sapiens, read-out: LC50 (the source's name)

SMILES: CC(C)(C)NC1CCN(c2cc(-c3ccc(Cl)cc3)nc3ccccc23)CC1.Cl.Cl [XII-4, 2-(4-chloro-phenyl)-4-(4-N-tert-butylamino-piperidin-1-yl)quinoline dihydrochloride]
- Growth percent at 10 μM (A498): +++ (cell growth 20 > % < 40)
- Growth percent at 10 μM (A549/ATCC): ++ (cell growth 40 > % < 60)
- Growth percent at 10 μM (ACHN): + (cell growth 60 > % < 80)
- Growth percent at 10 μM (CCRF-CEM): +++ (cell growth 20 > % < 40)
- Growth percent at 10 μM (HCC-2998): ++++ (cell growth 0 > % < 20)
- Growth percent at 10 μM (HOP-62): + (cell growth 60 > % < 80)
- Growth percent at 10 μM (HS 578T): + (cell growth 60 > % < 80)
- Growth percent at 10 μM (K-562): × (cell growth 0 < % > −20)
- Growth percent at 10 μM (LOX IMVI): ++++ (cell growth 0 > % < 20)
- Growth percent at 10 μM (MOLT-4): ++ (cell growth 40 > % < 60)
- Growth percent at 10 μM (NCI-H322M): ++ (cell growth 40 > % < 60)
- Growth percent at 10 μM (NCI-H460): ++ (cell growth 40 > % < 60)
- Growth percent at 10 μM (OVCAR-5): ++ (cell growth 40 > % < 60)
- Growth percent at 10 μM (SF-268): + (cell growth 60 > % < 80)
- Growth percent at 10 μM (SK-MEL-2): − (cell growth % > 80)
- Growth percent at 10 μM (SK-MEL-5): ++++ (cell growth 0 > % < 20)
- Growth percent at 10 μM (T-47D): ++ (cell growth 40 > % < 60)

SMILES: CCN(CC)C1CCN(C(C)c2cc(-c3ccccc3)nc3ccccc23)CC1.Cl.Cl (stereo not shown) [XIX-3, 2-phenyl-4-{1-[4-(N,N-diethylamino)piperidin-1-yl]-eth-1-yl}quinoline dihydrochloride]
- TGI (A498): 20 µM
- Growth percent at 10 μM (A498): ++ (cell growth 40 > % < 60)
- GI50 (A498; Homo sapiens): 5 µM
- LC50 (A498; Homo sapiens): 54 µM
- TGI (A549/ATCC): 31 µM
- Growth percent at 10 μM (A549/ATCC): + (cell growth 60 > % < 80)
- GI50 (A549/ATCC; Homo sapiens): 15 µM
- CC50 (A549/ATCC; [1]): 63 µM
- TGI (ACHN): 23 µM
- Growth percent at 10 μM (ACHN): + (cell growth 60 > % < 80)
- GI50 (ACHN; Homo sapiens): 11 µM
- LC50 (concentration causing 50% net cell kill) (ACHN; Homo sapiens): 50 µM
- TGI (CCRF-CEM): 25 µM
- Growth percent at 10 μM (CCRF-CEM): ++ (cell growth 40 > % < 60)
- GI50 (CCRF-CEM; Homo sapiens): 9 µM
- CC50 (CCRF-CEM; [1]): 62 µM
- TGI (HCC-2998): 13 µM
- Growth percent at 10 μM (HCC-2998): ++ (cell growth 40 > % < 60)
- GI50 (HCC-2998; Homo sapiens): 4 µM
- CC50 (HCC-2998; [1]): 44 µM
- TGI (HOP-62): 22 µM
- Growth percent at 10 μM (HOP-62): − (cell growth % > 80)
- GI50 (HOP-62; Homo sapiens): 9 µM
- CC50 (HOP-62; [1]): 52 µM
- TGI (HS 578T): 35 µM
- Growth percent at 10 μM (HS 578T): + (cell growth 60 > % < 80)
- GI50 (HS 578T; Homo sapiens): 11 µM
- LC50 (concentration killing 50% of cells) (HS 578T; Homo sapiens): 100 µM
- GI50 (K-562; Homo sapiens, K562): 2 µM
- CC50 (K-562; Homo sapiens, K562, read-out: LC50 (the source's name)): 15 µM
- TGI (K-562): 5 µM
- Growth percent at 10 μM (K-562): × (cell growth 0 > % > −20)
- GI50 (LOX IMVI; Homo sapiens): 4 µM
- CC50 (LOX IMVI; [1]): 44 µM
- TGI (LOX IMVI): 15 µM
- Growth percent at 10 μM (LOX IMVI): ++ (cell growth 40 > % < 60)
- GI50 (MOLT-4; Homo sapiens): 4 µM
- CC50 (MOLT-4; [1]): 49 µM
- TGI (MOLT-4): 15 µM
- Growth percent at 10 μM (MOLT-4): ++++ (cell growth % < 20)
- GI50 (NCI-H322M; Homo sapiens): 11 µM
- CC50 (NCI-H322M; [1]): 52 µM
- TGI (NCI-H322M): 24 µM
- Growth percent at 10 μM (NCI-H322M): + (cell growth 60 > % < 80)
- GI50 (NCI-H460; Homo sapiens): 7 µM
- CC50 (NCI-H460; [1]): 54 µM
- TGI (NCI-H460): 22 µM
- Growth percent at 10 μM (NCI-H460): + (cell growth 60 > % < 80)
- GI50 (OVCAR-5; Homo sapiens): 13 µM
- CC50 (OVCAR-5; [1]): 58 µM
- TGI (OVCAR-5): 28 µM
- Growth percent at 10 μM (OVCAR-5): + (cell growth 60 > % < 80)
- GI50 (SF-268; Homo sapiens): 10 µM
- CC50 (SF-268; [1]): 55 µM
- TGI (SF-268): 24 µM
- Growth percent at 10 μM (SF-268): + (cell growth 60 > % < 80)
- GI50 (SK-MEL-2; Homo sapiens): 3 µM
- CC50 (SK-MEL-2; [1]): 27 µM
- TGI (SK-MEL-2): 7 µM
- Growth percent at 10 μM (SK-MEL-2): ++ (cell growth 40 > % < 60)
- GI50 (SK-MEL-5; Homo sapiens): 2 µM
- CC50 (SK-MEL-5; [1]): 6 µM
- TGI (SK-MEL-5): 3 µM
- Growth percent at 10 μM (SK-MEL-5): ××××× (cell growth % < −80)
- GI50 (T-47D; Homo sapiens, T47D): 5 µM
- CC50 (T-47D; Homo sapiens, T47D, read-out: LC50 (the source's name)): 52 µM
- TGI (T-47D): 19 µM
- Growth percent at 10 μM (T-47D): ++ (cell growth 40 > % < 60)

Reference: US10179770B2, “Quinolines derivatives as novel anticancer agents” (GENOSCIENCE PHARMA, priority 2013, dated 2019)
